The source of these data is paper PMC11628397 (Nature Synthesis, 2024).

Data set [1] can be described thus: kinetic solubility in phosphate-buffered saline, pH 7.4. Format: physicochemical. The conditions noted are these: pH 7.4, aqueous buffer, kinetic from dmso stock.
The subject of data set [2] is human cancer cell line MCF-7. The data set is described as follows: resazurin reduction assay, growth inhibition of MCF-7. Format: cell-based. The conditions noted are these: MCF7, read-out: IC50, inhibition of the growth of MCF-7.
Data set [3] has as its system human cancer cell line MCF-7. The conditions noted are these: MCF-7 human cancer cell line; cited from earlier work.
The next data set relates to MCF-7 cells. The conditions noted are these: cited from earlier work.
The nature of data set [4]: metabolic stability in human liver microsomes.

SMILES strings stand for the structures. In brackets after ≈: the same amount, converted by molar mass. Some results are limits rather than exact numbers.

Take `CC(C)(C)c1ccc(CN2CCN(C(c3ccccc3)c3ccc(Cl)cc3)CC2)cc1` (stereo not drawn) [Buclizine]: in data set [1], the solubility (kinetic) was no more than 1 µM. For the same compound, the IC50 in data set [2] came out at 31.3 ± 7.8 µM. The “effect on cell growth (in words)” value in data set [3] was “cytostatic effect”. In the data set on MCF-7 cells, the “cell differentiation, intracellular lipid droplets (in words)” value is listed as “induced cell differentiation”.
In data set [1], `CCOC(=O)c1ccc(N)cc1` [Benzocaine] gave a solubility (kinetic) of 385 µM (≈ 63.6 µg/mL). Further, the “CLint, metabolic stability (as printed in text)” value in data set [4] came to 83 mg/min/µL.
